These results are taken from patent US20120220461A1, “CRYSTAL FORMS OF SULFONYLUREA COMPOUND AND METHOD FOR PRODUCING THE SAME” (NISSAN CHEMICAL INDUSTRIES, LTD., priority 2009, published 2012).

The data set in a line: Change of crystal form by heating, friction or suspension in a solvent. It is filed as physicochemical. From the text: In the present invention, for the discrimination of the crystal form, a powder X-ray diffraction measurement, a differential thermal analysis, ^13C CP/TOSS NMR, a Raman spectroscopy, and the like are effective, however, the method for the discrimination is not limited to these measurement methods.
• Apparatus: MXLabo (manufactured by Mac Science Corporation (present: Bruker AXS, Inc.)) • Ray source: Cu • Wavelength: 1.54056A • Goniometer: vertical-type goniometer • Tube voltage: 40.0 kV • Tube current: 30 mA • Measuring method: continuous method • Data range: 3.0400 to 40.0000 deg • Scanning axis: 2θ/θ • Sampling interval: 0.0400 deg • Scanning rate: 3.600 deg/min. • Emission slit: 1.00 deg • Scattering slit: 1.00 deg • Receiving slit: 0.15 mm • RSM: 0.80 mm
• Apparatus: TG 8120 (manufactured by Rigaku Corporation) • Temperature elevation: 20° C. to 300° C. at an elevation rate of 5° C./min • Atmosphere: Air • Reference: Al2O3 • Vessel: Al vessel • Sampling: 1 sec

As for `COc1cc(OC)nc(NC(=O)NS(=O)(=O)c2c(C3=NOCC(C)O3)c(Cl)nn2C)n1` (stereo not shown) [crystal form A, 3-chloro-N-(4,6-dimethoxypyrimidine-2-ylcarbamoyl)-1-methyl-4-(5-methyl-5,6-dihydro-1,4,2-dioxazine-3-yl)-1H-pyrazole-5-sulfonamide], the “change of crystal form by heating or friction” value (“change … by heating or friction” below) is “not observed”.

With `COc1cc(OC)nc(NC(=O)NS(=O)(=O)c2c(C3=NOCC(C)O3)c(Cl)nn2C)n1` (stereo not shown) [crystal form B, 3-chloro-N-(4,6-dimethoxypyrimidine-2-ylcarbamoyl)-1-methyl-4-(5-methyl-5,6-dihydro-1,4,2-dioxazine-3-yl)-1H-pyrazole-5-sulfonamide], the “change of crystal form by heating” value is “not observed”. For the setting “suspended in a solvent, stirred”, the “change of crystal form on suspending in a solvent and stirring” value was “transits to be converted into the crystal form A”. Take `COc1cc(OC)nc(NC(=O)NS(=O)(=O)c2c(C3=NOCC(C)O3)c(Cl)nn2C)n1` (stereo not shown) [crystal form C, 3-chloro-N-(4,6-dimethoxypyrimidine-2-ylcarbamoyl)-1-methyl-4-(5-methyl-5,6-dihydro-1,4,2-dioxazine-3-yl)-1H-pyrazole-5-sulfonamide]: the “change … by heating or friction” value is on record as “transits to the crystal form A or B”. For the molecule `COc1cc(OC)nc(NC(=O)NS(=O)(=O)c2c(C3=NOCC(C)O3)c(Cl)nn2C)n1` (stereo not shown) [crystal form D, 3-chloro-N-(4,6-dimethoxypyrimidine-2-ylcarbamoyl)-1-methyl-4-(5-methyl-5,6-dihydro-1,4,2-dioxazine-3-yl)-1H-pyrazole-5-sulfonamide], the “change of crystal form by heating” value was “transits to the crystal form A”. In the case of `COc1cc(OC)nc(NC(=O)NS(=O)(=O)c2c(C3=NOCC(C)O3)c(Cl)nn2C)n1` (stereo not shown) [crystal form E, 3-chloro-N-(4,6-dimethoxypyrimidine-2-ylearbamoyl)-1-methyl-4-(5-methyl-5,6-dihydro-1,4,2-dioxazine-3-yl)-1H-pyrazole-5-sulfonamide], the “change … by heating or friction” value is reported as “transits to the crystal form A”. In the case of `COc1cc(OC)nc(NC(=O)NS(=O)(=O)c2c(C3=NOCC(C)O3)c(Cl)nn2C)n1` (stereo not shown) [crystal form F, 3-chloro-N-(4,6-dimethoxypyrimidine-2-ylcarbamoyl)-1-methyl-4-(5-methyl-5,6-dihydro-1,4,2-dioxazine-3-yl)-1H-pyrazole-5-sulfonamide], the “change … by heating or friction” value was “transits to the crystal form A”.
